# Like-named read-outs stand apart in the source and are kept apart here.
# Legend:
# [1] = tested on: M. tuberculosis in human alveolar macrophages; experiment: M. tuberculosis in human alveolar macrophages, gallium nitrate with or without anti-tuberculous antibiotics; assay type: cell-based; conditions: full doses of first line antibiotics, by 24 h
# Description: The gallium-containing compounds can also be tested for their ability to inhibit intracellular pathogens in tissue culture assays. In general, in these assays, the macrophages are placed in culture and incubated with the intracellular pathogen at an approximate cell to pathogen ratio of preferably at least 1:1 to about 1:5 cells:pathogen. Exemplary culture conditions are provided in the assays detailed in the Examples. For assays assessing M. tuberculosis infection, freshly adherent monocytes, 12 day-old adherent MDMs, or freshly adherent alveolar macrophages are incubated with M. tuberculosis, MAI or other intracellular bacteria at a ratio of about 1:1 to about 1:5 (phagocyte:bacterium). For M. tuberculosis or MAI, the bacteria are incubated with the phagocyte for 2 hr at 37° C. in RPMI/HEPES media with 2.5% serum or human serum albumin (serum-free). The cells are washed to remove non-adherent bacteria and monolayers are replated with RPMI containing 1% autologous serum (to maintain phagocyte viability but not to sustain extracellular growth of bacteria). Gallium-containing compounds, such as gallium nitrate, with, or without, other agents such as antibiotics, cytokines etc., are added about 24 hr. later and mycobacterial growth in cell lysates is then assessed over the next several days either by the radiometric BACTEC system or by colony-forming units on agarose plates. In each experiment, growth is assessed relative to control monolayers where no drug has been added.
# Human alveolar macrophages were purified from healthy non-smoking adult volunteers and placed in monolayer culture. M. tuberculosis infected cells were treated with gallium nitrate as described in Example 2. Antituberculous antibiotics were added to wells alone or with gallium nitrate at 500 μM 24 h after M. tuberculosis infection. Antituberculous antibiotics tested included streptomycin (2.016 μg/ml), isoniazid (0.1 μg/ml), rifampin (2.0 μg/ml), and ethambutol (2.52 μg/ml) and the combination of antibiotics was denoted as SIRE. Antibiotics were obtained in lyophilized form from BACTEC. The antibiotics were reconstituted in sterile water per package instructions. With reference to FIG. 3, SIRE refers to combinations of streptomycin, isoniazid, rifampin and ethambutol while IR refers to combinations of Isoniazid and rifampin.
# Infected macrophages were cultured for 24 h, 48 h, or 120 h. Growth index readings of combined supernatants and cell lysates were measured in the BACTEC 460 TB system. […] Since these antibiotics have a number of unpleasant side effects that are reduced at reduced concentrations of the drugs, combined therapies that permit these antibiotics to be administered at lower doses when combined with gallium nitrate is significant and may help to promote better drug compliance in patients infected with M. tuberculosis.
# [2] = tested on: macrophage monolayers (MDMs); experiment: Gallium toxicity in uninfected MDM monolayers; assay type: cell-based, human; conditions: in most cases, equivalent to untreated controls
# Description: To test the potential toxicity of gallium nitrate on the standard macrophage monolayers (MDMs) used in the assays described in this invention, uninfected MDM monolayers were incubated with various concentrations of gallium nitrate in the range used in the studies described in Examples 2 and 3.
# There was no immediate difference in monolayer density between MDM monolayers with and without gallium nitrate treatment up to a gallium concentration of 2 mM. Results were based on counting napthol blue macrophage stained nuclei from the monolayer. These numbers directly correlate with the number of cells present. In most cases the integrity of the MDM monolayer in the presence of gallium was maintained for up to 37 days, equivalent to untreated, uninfected control cultures.
# bone cell = conditions: cancer patients, large scale clinical studies (Todd et al.); cited from earlier work
# [3] = known from literature; cited from earlier work
# [4] = tested on: M. tuberculosis strain H37Ra; assay type: cell-based
# [5] = tested on: M. tuberculosis in macrophages; assay type: cell-based
# [6] = tested on: macrophage ferritin and transferrin receptors; conditions: Byrd, et al.; cited from earlier work
compound,measurement,setting,value
CC[C@@H](CO)NCCN[C@@H](CC)CO [ethambutol],growth inhibition by full doses of first line antibiotics,[1],quite potent
[Ga] [gallium],time integrity of MDM monolayer maintained in presence of gallium,[2],up to 37 days
same,effect on bone cell morphology or viability,bone cell,did not affect bone cell morphology or viability
same,tissue accumulation,[3],"accumulate in cells of mononuclear origin in the liver, kidney, spleen and lymphatic system"
NNC(=O)c1ccncc1 [isoniazid],growth inhibition by full doses of first line antibiotics,[1],quite potent
CO[C@H]1/C=C/O[C@@]2(C)Oc3c(C)c(O)c4c(O)c(c(/C=N/N5CCN(C)CC5)c(O)c4c3C2=O)NC(=O)/C(C)=C\C=C\[C@H](C)[C@H](O)[C@@H](C)[C@@H](O)[C@@H](C)[C@H](OC(C)=O)[C@@H]1C [rifampin],growth inhibition by full doses of first line antibiotics,[1],quite potent
[H]/N=C(/N)N[C@H]1[C@H](O)[C@@H](O)[C@H](O[C@@H]2O[C@@H](C)[C@](O)(C=O)[C@H]2O[C@@H]2O[C@@H](CO)[C@H](O)[C@@H](O)[C@@H]2NC)[C@@H](N/C(N)=N\[H])[C@@H]1O [streptomycin],growth inhibition by full doses of first line antibiotics,[1],quite potent
gallium transferrin: Human apotransferrin mixed 1:1 (by molar ratio) with gallium,concentration of gallium with marked inhibition of growth,"[4]; growth index Day 10, broth culture, apotransferrin mixed 1:1 with gallium",75 µM
"interferon-γ: Human interferon-γ (Genzyme, Cambridge, Mass.), cytokine",augmentation of gallium nitrate growth inhibition,[5]; IFN-γ in combination with 0 to about 400 μM gallium nitrate,at least 50%
same,augmentation of gallium nitrate growth inhibition,"[5]; interferon-γ various concentrations (0-1000U), gallium nitrate at 100 μM",≥ 50%
same,effect on expression of transferrin receptors,[6],down regulate expression of transferrin receptors
same,effect on macrophage ferritin levels,[6],down regulate macrophage ferritin levels
transferrin: control cultures were treated with transferrin alone; Human apotransferrin (Sigma Chemicals),"bacterial growth inhibition, control culture",[4]; transferrin alone,no inhibition in bacterial growth
